From US11203602B2, “Thioester prodrugs of macrocycles as inhibitors of histone deacetylases” (OnKure, Inc., priority 2016, dated 2021)
Values after ≈ are worked out from the molar mass of the structure shown. Where a name gives a salt, the structure may show the parent alone.

Key:
[1] = Rat PK (p.o.); format: in vivo; conditions: plasma, po
[2] = Aqueous solubility at two pH levels; format: physicochemical; conditions: aqueous solution
[3] = system: HDAC; conditions: cells treated with compound; Ying et al. 2008a; read-out: IC50 HDAC inhibition; cited from earlier work
[4] = system: melanoma cell lines; conditions: series of melanoma cell lines; Bowers et al. 2008; cited from earlier work
[5] = system: HCT116 cells; conditions: Ying et al. 2008b; cited from earlier work
[6] = system: HLF cells; conditions: HLF normal cell line; Zeng et al. 2010; cited from earlier work
[7] = system: MDA-MB231; conditions: Taori et al. 2008; cited from earlier work
[8] = system: HEK293; conditions: HEK293 normal cell line; Zeng et al. 2010; cited from earlier work
[9] = system: HCT 116 cells; conditions: Zeng et al. 2010; cited from earlier work
[10] = system: HDAC proteins from class I and class II; conditions: purified full length HDAC proteins; Bowers et al. 2008; cited from earlier work
[11] = 10 mg/kg, Vehicle (0.02N HCl sol.)
[12] = 15 mg/kg, Vehicle (0.1N citrate buffer)

| Compound | AUC(0-inf) [1, 11] | Cmax [1, 11] | Tmax [1, 11] | half-life [1, 11] | solubility ([2]; pH 3, aqueous buffer) | solubility ([2]; pH 6, aqueous buffer) | further results |
| --- | --- | --- | --- | --- | --- | --- | --- |
| CC(C)[C@@H]1NC(=O)C(C)(C)NC(=O)c2csc(n2)CNC(=O)C[C@@H](/C=C/CCSC(=O)[C@H](N)C(C)C)OC1=O.Cl [Example 1, (R)—S-((E)-4-((7S,10S)-7-isopropyl-4,4-dimethyl-2,5,8,12-tetraoxo-9-oxa-16-thia-3,6,13,18-tetraazabicyclo[13.2.1]octadeca-1(17),15(18)-dien-10-yl)but-3-en-1-yl) 2-amino-3-methylbutanethioate Hydrochloride] | 257 ng·h/mL | 86 ng/mL | 0.42 h | 8.53 h | 8.67 mg/mL | 10.5 mg/mL | – |
| CC(C)[C@@H]1NC(=O)C(C)(C)NC(=O)c2csc(n2)CNC(=O)C[C@@H](/C=C/CCSC(=O)[C@H](C)N)OC1=O [Example 4, (S)—S-((E)-4-((7S,10S)-7-isopropyl-4,4-dimethyl-2,5,8,12-tetraoxo-9-oxa-16-thia-3,6,13,18-tetraazabicyclo[13.2.1]octadeca-1(17),15(18)-dien-10-yl)but-3-en-1-yl) 2-aminopropanethioate Oxalate] | 176 ng·h/mL | 51 ng/mL | 1 h | 6.09 h | 15.4 mg/mL | 25.2 mg/mL | – |
| CC(C)[C@@H]1NC(=O)C(C)(C)NC(=O)c2csc(n2)CNC(=O)C[C@@H](/C=C/CCSC(=O)[C@@H](C)N)OC1=O [Example 5, (R)—S-((E)-4-((7S,10S)-7-isopropyl-4,4-dimethyl-2,5,8,12-tetraoxo-9-oxa-16-thia-3,6,13,18-tetraazabicyclo[13.2.1]octadeca-1(17),15(18)-dien-10-yl)but-3-en-1-yl) 2-aminopropanethioate Oxalate] | – | – | – | – | 45.5 mg/mL | 41.8 mg/mL | – |
| CC(C)[C@@H]1NC(=O)C(C)(C)NC(=O)c2csc(n2)CNC(=O)C[C@@H](/C=C/CCSC(=O)CN(C)C)OC1=O [Example 6, S-((E)-4-((7S,10S)-7-isopropyl-4,4-dimethyl-2,5,8,12-tetraoxo-9-oxa-16-thia-3,6,13,18-tetraazabicyclo[13.2.1]octadeca-1(17),15(18)-dien-10-yl)but-3-en-1-yl) 2-(dimethylamino)ethanethioate] | 272 ng·h/mL | 107 ng/mL | 0.83 h | 5.86 h | 2.45 mg/mL (≈ 4.32 mM) | 2.32 mg/mL (≈ 4.09 mM) | – |
| CC(C)[C@@H]1NC(=O)[C@]2(C)CSC(=N2)c2csc(n2)CNC(=O)C[C@@H](/C=C/CCS)OC1=O [largazole thiol] | – | – | – | – | – | – | IC50 [3]: 209 nM; IC50 [4]: 380 to 2600 nM; GI50 [5]: 38 nM |
| CCCCCCCC(=O)SCC/C=C/[C@@H]1CC(=O)NCc2nc(cs2)C2=N[C@@](C)(CS2)C(=O)N[C@@H](C(C)C)C(=O)O1 [largazole, Largazole] | – | – | – | – | – | – | IC50 [3]: 51 nM; IC50 [4]: 45 to 315 nM; GI50 [6]: 980 nM; GI50 [7]: 7.7 nM; GI50 [8]: 1360 nM; GI50 [5]: 44 nM; GI50 [9]: 80 nM; HDAC inhibition in vitro compared to the thiol [10]: much weaker HDAC inhibitor; preference for HDACs 1, 2, and 3 over HDAC6 [10]: pronounced preference |

Further lines, with some results ahead:

| AUC(0-inf) [1, 11] | Cmax [1, 11] | Tmax [1, 11] | half-life [1, 11] | solubility ([2]; pH 3, aqueous buffer) | solubility ([2]; pH 6, aqueous buffer) | Compound | further results |
| --- | --- | --- | --- | --- | --- | --- | --- |
| 267 ng·h/mL | 123 ng/mL | 0.48 h | 8.23 h | 12.3 mg/mL | 18 mg/mL | CC(C)[C@H](N)C(=O)SCC/C=C/[C@@H]1CC(=O)NCc2nc(cs2)C(=O)NC(C)(C)C(=O)N[C@@H](C(C)C)C(=O)O1.Cl [Example 2, (S)—S-((E)-4-((7S,10S)-7-isopropyl-4,4-dimethyl-2,5,8,12-tetraoxo-9-oxa-16-thia-3,6,13,18-tetraazabicyclo[13.2.1]octadeca-1(17),15(18)-dien-10-yl)but-3-en-1-yl) 2-amino-3-methylbutanethioate Hydrochloride] | – |
| – | – | – | – | 7.5 mg/mL | – | CC(C)[C@H](N)C(=O)SCC/C=C/[C@@H]1CC(=O)NCc2nc(cs2)C(=O)NC(C)(C)C(=O)N[C@@H](C(C)C)C(=O)O1.O=S(=O)(O)c1ccccc1 [Example 3, (S)—S-((E)-4-((7S,10S)-7-isopropyl-4,4-dimethyl-2,5,8,12-tetraoxo-9-oxa-16-thia-3,6,13,18-tetraazabicyclo[13.2.1]octadeca-1(17),15(18)-dien-10-yl)but-3-en-1-yl) 2-amino-3-methylbutanethioate Benzenesulfonate] | AUC(0-inf) [1, 12]: 583 ng·h/mL; Cmax [1, 12]: 253 ng/mL; Tmax [1, 12]: 0.6 h; half-life [1, 12]: 12.4 h |
| 240 ng·h/mL | 150 ng/mL | 0.33 h | 6.88 h | – | – | CC(C)[C@@H]1NC(=O)C(C)(C)NC(=O)c2csc(n2)CNC(=O)C[C@@H](/C=C/CCSC(=O)c2cccnc2)OC1=O [Example 7, S-((E)-4-((7S,10S,Z)-7-isopropyl-4,4-dimethyl-2,5,8,12-tetraoxo-9-oxa-3,6,13-triaza-1(4,2)-thiazolacyclotetradecaphane-10-yl)but-3-en-1-yl) pyridine-3-carbothioate] | – |
